{"source": "patent US11723920B2", "about": "“Method for treating cancer with a nanoformulation” (Imam Abdulrahman Bin Faisal University, priority 2019, dated 2023)", "test_system": "human mammary adenocarcinoma cell line, MCF-7", "assay": "Cell viability MTT assay on MCF-7 cells", "type": "cell-based", "details": "MCF-7, 48 h", "description": "Cells were maintained in DMEM (Dulbecco's Modified Eagle Medium) (Gibco, life technologies) supplemented with 10% heat inactivated fetal bovine serum (HI-FBS) (Gibco, life technology), 1% Penicillin Streptomycin (100×— Gibco, life technology), and 1% MEM NEAA (MEM non-essential amino acids) (100×— Gibco, life technology). Cells were kept in a humidified incubator at 37° C. with 5% CO2. For the experimental setup, MCF-7 cells were seeded on a 96-well plate at a density of 20,000 cells/well. On the next day, cells were shifted to the starve media (0.5% HI-FBS containing media) for 24 h before treatment.\nFor groups B, C, E, and F, treatment concentrations were as follows: 0.025, 0.05, 0.1, and 0.5 mg/mL. […] Therefore, treatment concentrations for group A were as follows: 0.0084, 0.0168, 0.0336, and 0.168 mg/mL. Treatment concentrations used in this experiment for group D were as follows: 0.001125, 0.00225, 0.0045, 0.0225 mg/mL.\nThe viability of cells was tested using 3-(4,5-dimethylthiazol-2-yl)-2,5-diphenyltetrazolium bromide (MTT) assay. It is based on the ability to reduce MTT relative to formazan crystals. […] The change in color intensity was measured at 570 nm wavelength using SYNERGY-neo2 BioTek ELISA reader. […] The reading of each triplicate was averaged and subtracted from the averaged MTT background control reading. […]", "data": [{"molecule": "N.N.[Cl][Pt][Cl]", "note": "[cisplatin]", "values": [{"measurement": "effect on cell viability (in words)", "result": "significantly reduced cell viability"}]}]}
